Source: EP2057188B1 (priority 2006, dated 2008)

Experiments:
[1] = assay type: in vivo, NIH/Swiss mice; settings: 80 nmol/Kg; AUC240
Experimental: Gavage (1.5g/kg) was given at t=0. Sample was taken at t=30 min.

[2] = IVGTT duration of action assay, single SC injection; assay type: in vivo, rat; settings: compared with 0601GIP3794 (794); @ -120 min
Experimental: In the typical IVGTT assays the test sample was administered by IV infusion. The IV infusion of sample was initiated at t = -30min and continued through t = 90. IV glucose was given at t = 0. To determine a duration of action using the IVGTT assay, the sample was injected SC as a single injection at one time point indicated (e.g., t = -240, -120, -60 or -30) prior to administration of glucose. IV glucose was given at t = 0.

Compound | Basal Glucose Lowering at 80 nmol/Kg [1] | Duration In The Rat IVGTT Assay [2]
CC[C@H](C)[C@H](NC(=O)[C@H](CO)NC(=O)[C@H](Cc1ccc(O)cc1)NC(=O)[C@H](CC(=O)O)NC(=O)[C@H](CO)NC(=O)[C@@H](NC(=O)[C@H](Cc1ccccc1)NC(=O)[C@@H](NC(=O)CNC(=O)[C@H](CCC(=O)O)NC(=O)[C@@H](C)NC(=O)[C@@H](N)Cc1ccc(O)cc1)[C@@H](C)O)[C@@H](C)CC)C(=O)N[C@@H](C)C(=O)N[C@@H](CCSC)C(=O)N[C@@H](CC(=O)O)C(=O)N[C@@H](CCCCN)C(=O)N[C@H](C(=O)N[C@@H](Cc1c[nH]cn1)C(=O)N[C@@H](CCC(N)=O)C(=O)N[C@@H](CCC(N)=O)C(=O)N[C@@H](CC(=O)O)C(=O)N[C@@H](Cc1ccccc1)C(=O)N[C@H](C(=O)N[C@@H](CC(N)=O)C(=O)N[C@@H](Cc1c[nH]c2ccccc12)C(=O)N[C@@H](CC(C)C)C(=O)N[C@@H](CC(C)C)C(=O)N[C@@H](C)C(=O)N[C@@H](CCC(N)=O)C(=O)N[C@@H](CCCCN)C(=O)N1CCC[C@H]1C(=O)N[C@@H](CCCCN)C(=O)N[C@@H](CCCCN)C(=O)N[C@@H](CC(C)C)C(=O)N[C@@H](CCCCN)C(=O)N1CCC[C@H]1C(=O)N[C@@H](CO)C(N)=O)C(C)C)[C@@H](C)CC [0601 GIP48 22] | -11%, AUC240 | <794@-120 min
CC[C@H](C)[C@H](NC(=O)[C@H](CO)NC(=O)[C@H](Cc1ccc(O)cc1)NC(=O)[C@H](CC(=O)O)NC(=O)[C@H](CO)NC(=O)[C@@H](NC(=O)[C@H](Cc1ccccc1)NC(=O)[C@@H](NC(=O)CNC(=O)[C@H](CCC(=O)O)NC(=O)[C@@H](C)NC(=O)[C@@H](N)Cc1ccc(O)cc1)[C@@H](C)O)[C@@H](C)CC)C(=O)N[C@@H](C)C(=O)N[C@@H](CCSC)C(=O)N[C@@H](CC(=O)O)C(=O)N[C@@H](CCCCN)C(=O)N[C@H](C(=O)N[C@@H](Cc1c[nH]cn1)C(=O)N[C@@H](CCC(N)=O)C(=O)N[C@@H](CCC(N)=O)C(=O)N[C@@H](CC(=O)O)C(=O)N[C@@H](Cc1ccccc1)C(=O)N[C@H](C(=O)N[C@@H](CC(N)=O)C(=O)N[C@@H](Cc1c[nH]c2ccccc12)C(=O)N[C@@H](CC(C)C)C(=O)N[C@@H](CC(C)C)C(=O)N[C@@H](C)C(=O)N[C@@H](CCC(N)=O)C(=O)N[C@@H](CCCCN)C(=O)N1CCC[C@H]1C(=O)N[C@@H](C)C(=O)N[C@@H](CCCCN)C(=O)N[C@H](C(=O)N[C@@H](CCCNC(=N)N)C(=O)N[C@@H](Cc1ccc(O)cc1)C(=O)N[C@@H](CO)C(N)=O)[C@@H](C)CC)C(C)C)[C@@H](C)CC [0601 GIP48 15] | -14%, AUC240 | < 794@ -120 min
CC[C@H](C)[C@H](NC(=O)[C@H](CO)NC(=O)[C@H](Cc1ccc(O)cc1)NC(=O)[C@H](CC(=O)O)NC(=O)[C@H](CO)NC(=O)[C@@H](NC(=O)[C@H](Cc1ccccc1)NC(=O)[C@@H](NC(=O)CNC(=O)[C@H](CCC(=O)O)NC(=O)[C@@H](C)NC(=O)[C@@H](N)Cc1ccc(O)cc1)[C@@H](C)O)[C@@H](C)CC)C(=O)N[C@@H](C)C(=O)N[C@@H](CCSC)C(=O)N[C@@H](CC(=O)O)C(=O)N[C@@H](CCCCN)C(=O)N[C@H](C(=O)N[C@@H](Cc1c[nH]cn1)C(=O)N[C@@H](CCC(N)=O)C(=O)N[C@@H](CCC(N)=O)C(=O)N[C@@H](CC(=O)O)C(=O)N[C@@H](Cc1ccccc1)C(=O)N[C@H](C(=O)N[C@@H](CC(N)=O)C(=O)N[C@@H](Cc1c[nH]c2ccccc12)C(=O)N[C@@H](CC(C)C)C(=O)N[C@@H](CC(C)C)C(=O)N[C@@H](C)C(=O)N[C@@H](CCC(N)=O)C(=O)N[C@@H](CCCCN)C(=O)N1CCC[C@H]1C(=O)N[C@@H](CCC(N)=O)C(=O)N[C@@H](CCCCN)C(=O)N[C@H](C(=O)N[C@@H](CCCNC(=N)N)C(=O)N[C@@H](Cc1ccc(O)cc1)C(=O)N[C@@H](CO)C(N)=O)[C@@H](C)CC)C(C)C)[C@@H](C)CC [0601 GIP48 53] | -20%, AUC240 | < 794@ -120 min
CC[C@H](C)[C@H](NC(=O)[C@H](CO)NC(=O)[C@H](Cc1ccc(O)cc1)NC(=O)[C@H](CC(=O)O)NC(=O)[C@H](CO)NC(=O)[C@@H](NC(=O)[C@H](Cc1ccccc1)NC(=O)[C@@H](NC(=O)CNC(=O)[C@H](CCC(=O)O)NC(=O)[C@@H](C)NC(=O)[C@@H](N)Cc1ccc(O)cc1)[C@@H](C)O)[C@@H](C)CC)C(=O)N[C@@H](C)C(=O)N[C@@H](CCSC)C(=O)N[C@@H](CC(=O)O)C(=O)N[C@@H](CCCCN)C(=O)N[C@H](C(=O)N[C@@H](Cc1c[nH]cn1)C(=O)N[C@@H](CCC(N)=O)C(=O)N[C@@H](CCC(N)=O)C(=O)N[C@@H](CC(=O)O)C(=O)N[C@@H](Cc1ccccc1)C(=O)N[C@H](C(=O)N[C@@H](CC(N)=O)C(=O)N[C@@H](Cc1c[nH]c2ccccc12)C(=O)N[C@@H](CC(C)C)C(=O)N[C@@H](CC(C)C)C(=O)N[C@@H](C)C(=O)N[C@@H](CCC(N)=O)C(=O)N[C@@H](CCCCN)C(=O)N1CCC[C@H]1C(=O)N[C@@H](CO)C(=O)N1CCC[C@H]1C(=O)N[C@@H](CCCCN)C(=O)N[C@@H](CCCCN)C(=O)N[C@H](C(=O)N[C@@H](CCCNC(=N)N)C(=O)N[C@@H](Cc1ccc(O)cc1)C(=O)N[C@@H](CO)C(N)=O)[C@@H](C)CC)C(C)C)[C@@H](C)CC [0601 GIP48 23] | -23%, AUC2240 | <794@-120 min
CC[C@H](C)[C@H](NC(=O)[C@H](CO)NC(=O)[C@H](Cc1ccc(O)cc1)NC(=O)[C@H](CC(=O)O)NC(=O)[C@H](CO)NC(=O)[C@@H](NC(=O)[C@H](Cc1ccccc1)NC(=O)[C@@H](NC(=O)CNC(=O)[C@H](CCC(=O)O)NC(=O)[C@@H](C)NC(=O)[C@@H](N)Cc1ccc(O)cc1)[C@@H](C)O)[C@@H](C)CC)C(=O)N[C@@H](C)C(=O)N[C@@H](CC(C)C)C(=O)N[C@@H](CC(=O)O)C(=O)N[C@@H](CCCCN)C(=O)N[C@H](C(=O)N[C@@H](Cc1c[nH]cn1)C(=O)N[C@@H](CCC(N)=O)C(=O)N[C@@H](CCC(N)=O)C(=O)N[C@@H](CC(=O)O)C(=O)N[C@@H](Cc1ccccc1)C(=O)N[C@H](C(=O)N[C@@H](CC(N)=O)C(=O)N[C@@H](Cc1c[nH]c2ccccc12)C(=O)N[C@@H](CC(C)C)C(=O)N[C@@H](CC(C)C)C(=O)N[C@@H](C)C(=O)N[C@@H](CCC(N)=O)C(=O)N[C@@H](CCCCN)C(=O)N1CCC[C@H]1C(=O)N[C@@H](CCCCN)C(=O)N[C@@H](CCCCN)C(=O)N[C@H](C(=O)N[C@@H](CCCNC(=N)N)C(=O)N[C@@H](Cc1ccc(O)cc1)C(=O)N[C@@H](CO)C(N)=O)[C@@H](C)CC)C(C)C)[C@@H](C)CC [0601 GIP48 07] | -26%, AUC240 | < 794 @-120 min
